In patent US20260285850A1, “SUBSTITUTED OXAZOLIDINONES AND IMIDAZOLINONES AS HERBICIDES” (FMC CORPORATION, priority 2023, published 2026):

Experiments:
Format in all cases: in vivo
[1] = tested on: wheat (Triticum aestivum); experiment: Test A preemergence soil spray, visual injury rating 0-100; details: 10 days
Outline: (§1)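 Visual injury ratings (0, no effect; 100, complete control) were assigned relative to untreated plants 10 days after treatment. Test chemicals, formulated with a surfactant-containing non-phytotoxic solvent, were applied in loam-sand soil either as a directed soil spray before emergence or to emerged plants, and plants were kept in a greenhouse.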

[2] = tested on: palmer (palmer amaranth, palmer pigweed, Amaranthus palmeri); experiment: as above; details: 10 days
Outline: as §1

[3] = tested on: green foxtail (Setaria viridis); experiment: as above; details: 10 days
Outline: as §1

[4] = tested on: ryegrass, Italian (italian ryegrass, Lolium multiflorum); experiment: as above; details: 10 days
Outline: as §1

kochia (Bassia scoparia) [5] = experiment: as above; details: 10 days
Outline: as §1

[6] = tested on: blackgrass (Alopecurus myosuroides); experiment: as above; details: 10 days
Outline: as §1

[7] = tested on: barnyardgrass (Echinochloa crus-galli); experiment: as above; details: 10 days
Outline: as §1

[8] = tested on: ragweed (common ragweed, Ambrosia artemisiifolia); experiment: as above; details: 10 days
Outline: as §1

[9] = tested on: oat, wild (wild oat, Avena fatua); experiment: as above; details: 10 days
Outline: as §1

soybean (Glycine max) [10] = experiment: as above; details: 10 days
Outline: as §1

corn (Zea mays) [11] = experiment: as above; details: 10 days
Outline: as §1

[12] = tested on: wheat (Triticum aestivum); experiment: Test A postemergence application, visual injury rating 0-100
Outline: as §1

[13] = tested on: palmer (palmer amaranth, palmer pigweed, Amaranthus palmeri); experiment: as above
Outline: as §1

[14] = tested on: green foxtail (Setaria viridis); experiment: as above
Outline: as §1

[15] = tested on: horseweed (Erigeron canadensis); experiment: as above
Outline: as §1

[16] = tested on: galium (catchweed bedstraw, Galium aparine); experiment: as above
Outline: as §1

[17] = tested on: ryegrass, Italian (italian ryegrass, Lolium multiflorum); experiment: as above
Outline: as §1

kochia (Bassia scoparia) [18] = experiment: as above
Outline: as §1

[19] = tested on: blackgrass (Alopecurus myosuroides); experiment: as above
Outline: as §1

[20] = tested on: barnyardgrass (Echinochloa crus-galli); experiment: as above
Outline: as §1

[21] = tested on: ragweed (common ragweed, Ambrosia artemisiifolia); experiment: as above
Outline: as §1

[22] = tested on: oat, wild (wild oat, Avena fatua); experiment: as above
Outline: as §1

soybean (Glycine max) [23] = experiment: as above
Outline: as §1

corn (Zea mays) [24] = experiment: as above
Outline: as §1

[25] = tested on: ducksalad (Heteranthera limosa); experiment: Test B flooded paddy test, visual plant response rating 0-100; details: 250 g ai/ha, Flood, applied to paddy water, evaluated after 13 days
Outline: (§2)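 2-leaf plants; flood 3 cm over soil; compound dosed into paddy water; depth kept constant; greenhouse 13 d; visual scoring vs controls. Dash = no result.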

[26] = tested on: barnyardgrass (Echinochloa crusgalli); experiment: as above; details: 250 g ai/ha, Flood, applied to paddy water, evaluated after 13 days
Outline: as §2

rice (Oryza sativa) = experiment: as above; details: 250 g ai/ha, Flood, applied to paddy water, evaluated after 13 days
Outline: as §2

[27] = tested on: sedge, umbrella (small-flower umbrella sedge, Cyperus difformis); experiment: as above; details: 250 g ai/ha, Flood, applied to paddy water, evaluated after 13 days
Outline: as §2

[28] = 62 g ai/ha, 0 = no effect, 100 = complete control
[29] = 62 g ai/ha, postemergence, 10 days, 0 = no effect, 100 = complete control
[30] = Postemergence, 16 g ai/ha, greenhouse 10 days, 0 no effect, 100 complete control

C=CC1(C(=O)NC2C=CC(C(=O)OC)C2)CN(c2cc(F)cc(F)c2)C(=O)O1 (single isomer, unassigned) [Compound 168]
Wheat plant response rating ([1]; 16 g ai/ha, 0 to 100 scale): 0
Wheat plant response rating (0-100) [1, 28]: 0
Pigweed, Palmer plant response rating ([2]; 16 g ai/ha, 0 to 100 scale): 0
Pigweed, Palmer plant response rating (0-100) [2, 28]: 0
Foxtail, Green plant response rating ([3]; 16 g ai/ha, 0 to 100 scale): 0
Foxtail, Green plant response rating (0-100) [3, 28]: 0
Ryegrass, Italian plant response rating ([4]; 16 g ai/ha, 0 to 100 scale): 0
Ryegrass, Italian plant response rating (0-100) [4, 28]: 0
Kochia plant response rating (kochia (Bassia scoparia) [5]; 16 g ai/ha, 0 to 100 scale): 0
Kochia plant response rating (0-100) (kochia (Bassia scoparia) [5]; [28]): 0
Blackgrass plant response rating ([6]; 16 g ai/ha, 0 to 100 scale): 0
Blackgrass plant response rating (0-100) [6, 28]: 0
Barnyardgrass plant response rating ([7]; 16 g ai/ha, 0 to 100 scale): 0
Barnyardgrass plant response rating (0-100) [7, 28]: 0
Ragweed plant response rating ([8]; 16 g ai/ha, 0 to 100 scale): 0
Ragweed plant response rating (0-100) [8, 28]: 0
Oat, Wild plant response rating ([9]; 16 g ai/ha, 0 to 100 scale): 0
Oat, Wild plant response rating (0-100) [9, 28]: 0
Soybean plant response rating (soybean (Glycine max) [10]; 16 g ai/ha, 0 to 100 scale): 0
Soybean plant response rating (0-100) (soybean (Glycine max) [10]; [28]): 0
Corn plant response rating (corn (Zea mays) [11]; 16 g ai/ha, 0 to 100 scale): 0
Corn plant response rating (0-100) (corn (Zea mays) [11]; [28]): 0
Wheat plant response rating (0-100) [12, 29]: 0
Wheat plant response rating (0 to 100 scale) [12, 30]: 0
Pigweed, Palmer plant response rating (0-100) [13, 29]: 0
Pigweed, Palmer plant response rating (0 to 100 scale) [13, 30]: 0
Foxtail, Green plant response rating (0-100) [14, 29]: 0
Foxtail, Green plant response rating (0 to 100 scale) [14, 30]: 0
Horseweed plant response rating (0-100) [15, 29]: 0
Horseweed plant response rating (0 to 100 scale) [15, 30]: 0
Galium plant response rating (0-100) [16, 29]: 0
Galium plant response rating (0 to 100 scale) [16, 30]: 0
Ryegrass, Italian plant response rating (0-100) [17, 29]: 0
Ryegrass, Italian plant response rating (0 to 100 scale) [17, 30]: 0
Kochia plant response rating (0-100) (kochia (Bassia scoparia) [18]; [29]): 0
Kochia plant response rating (0 to 100 scale) (kochia (Bassia scoparia) [18]; [30]): 0
Blackgrass plant response rating (0-100) [19, 29]: 0
Blackgrass plant response rating (0 to 100 scale) [19, 30]: 0
Barnyardgrass plant response rating (0-100) [20, 29]: 20
Barnyardgrass plant response rating (0 to 100 scale) [20, 30]: 10
Ragweed plant response rating (0-100) [21, 29]: 0
Ragweed plant response rating (0 to 100 scale) [21, 30]: 0
Oat, Wild plant response rating (0-100) [22, 29]: 0
Oat, Wild plant response rating (0 to 100 scale) [22, 30]: 0
Soybean plant response rating (0-100) (soybean (Glycine max) [23]; [29]): 0
Soybean plant response rating (0 to 100 scale) (soybean (Glycine max) [23]; [30]): 0
Corn plant response rating (0-100) (corn (Zea mays) [24]; [29]): 10
Corn plant response rating (0 to 100 scale) (corn (Zea mays) [24]; [30]): 0
Plant response rating, Ducksalad (0 to 100 scale, 0 is no effect and 100 is complete control) [25]: 0
Plant response rating, Barnyardgrass (0 to 100 scale, 0 is no effect and 100 is complete control) [26]: 0
Plant response rating, Rice (0 to 100 scale, 0 is no effect and 100 is complete control) (rice (Oryza sativa)): 0
Plant response rating, Sedge, Umbrella (0 to 100 scale, 0 is no effect and 100 is complete control) [27]: 0
